In patent US10556870B2, “Imidazole compounds as EAAT3 inhibitors” (Hoffmann-La Roche Inc., priority 2016, dated 2020) one finds Kb and melting point data, which are given here for 12 compounds.

The target of one data set is T1, human EAAT3 (Homo sapiens, UniProt P43005).
T1 construct: expressed in transfected cells
T1 sequence (P43005 1-524): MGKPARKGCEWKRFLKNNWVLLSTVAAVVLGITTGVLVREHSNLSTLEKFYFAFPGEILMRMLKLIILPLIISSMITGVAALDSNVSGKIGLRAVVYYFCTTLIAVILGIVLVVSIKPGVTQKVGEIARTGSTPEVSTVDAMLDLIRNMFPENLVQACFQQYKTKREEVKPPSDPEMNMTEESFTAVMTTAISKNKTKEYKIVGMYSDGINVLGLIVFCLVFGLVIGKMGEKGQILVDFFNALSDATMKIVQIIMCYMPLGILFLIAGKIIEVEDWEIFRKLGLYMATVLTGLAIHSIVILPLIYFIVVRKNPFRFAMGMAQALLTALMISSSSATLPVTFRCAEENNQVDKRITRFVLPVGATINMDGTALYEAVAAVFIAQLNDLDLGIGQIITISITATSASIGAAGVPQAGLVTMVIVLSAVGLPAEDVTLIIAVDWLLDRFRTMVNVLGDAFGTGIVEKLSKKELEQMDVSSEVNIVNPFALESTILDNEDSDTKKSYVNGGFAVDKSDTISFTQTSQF
Put plainly: FLIPR Membrane Potential (FMP) assay, antagonist potency at human EAAT3 with L-glutamate as agonist. It is filed as cell-based. Conditions: HEK-293 cells stably expressing human EAAT3; L-glutamate at 80% of maximum response; antagonist applied 15 min before agonist; Kb by Cheng-Prusoff equation. The procedure: The FLIPR Membrane Potential (FMP) Assay
HEK-293 cells stably expressing human EAAT3 were seeded at 55 000 cells/well in growth medium (DMEM glutamate free (Invitrogen 11960-044), 1% Pen Strep (10 ml/l GIBCO BRL No 15140-023), 10% FCS non dialysed heat inactivated, 5 mg/l puromycin) in poly-D-lysine treated 96-well black microtiter plates with clear-bottom. After 24 h, the growth medium was removed and 100 μl/well of Krebs buffer (140 mM NaCl, 4.7 mM KCl, 2.5 mM CaCl2, 1.2 mM MgCl2, 11 mM HEPES, 10 mM D-glucose, pH=7.4) added. The cells were then loaded by adding 100 μl/well FMP assay dye (FLIPR Membrane Potential assay reagent, Molecular Devices). The 96-well plates were then incubated at 37° C. for 1 h. The depolarization of the cells will cause more dye to enter in the cells, where it will bind to intracellular proteins and lipids and cause an increase in the fluorescence signal. Antagonist potency at human EAAT3 was determined by using L-glutamate as agonist at a concentration which gives 80% of the maximum response. The antagonists were applied 15 min before the application of the agonist L-glutamate. The assays were performed at room temperature and measurements done by using a Fluorometric Imaging Plate Reader (FLIPR, Molecular Devices) and filter #2. Responses were measured as peak increase in fluorescence minus basal (i.e. fluorescence without addition of L-glutamate). Kb was determined using the Cheng-Prusoff equation Kb=IC50/[1+(A/EC50)], where IC50 is the concentration of the antagonist producing 50% inhibition, A is the concentration of the agonist against which the IC50 is being determined (at EC50) and EC50 is the concentration of the agonist producing […].

`CC(C)n1cncc1-c1cc(C(=O)NC(C)(C)C)cc(-c2ccc(Cl)cc2)c1` [Example 3, N-tert-Butyl-3-(4-chlorophenyl)-5-(3-propan-2-yl-imidazol-4-yl)-benzamide] came in with a melting point of 97.5 °C. The compound further yielded a Kb on human EAAT3 of 140 nM.
The matching figures for `CC(C)(C)NC(=O)c1cc(-c2ccc(F)cc2)cc(-c2cncn2C(C)(C)C)c1` [Example 11, N-tert-Butyl-3-(3-tert-butyl-imidazol-4-yl)-5-(4-fluorophenyl)-benzamide]: 96 °C and 210 nM.
For `CC(C)n1cncc1-c1cc(C(=O)NC(C)(C)C)cc(-c2ccc(F)cc2)c1` [Example 1, N-tert-Butyl-3-(4-fluorophenyl)-5-(3-propan-2-yl-imidazol-4-yl)-benzamide], in that order: 85 °C and 160 nM.
For `CCn1cncc1-c1cc(C(=O)NC(C)(C)C)cc(-c2ccc(F)cc2)c1` [Example 9, N-tert-Butyl-3-(3-ethyl-imidazol-4-yl)-5-(4-fluorophenyl)-benzamide], in that order: 79 °C and 160 nM.
`Cn1cncc1-c1cc(C(=O)NC(C)(C)C)cc(-c2ccc(C(F)(F)F)cc2)c1` [Example 5, N-tert-Butyl-3-(3-methyl-imidazol-4-yl)-5-[4-(trifluoromethyl)-phenyl]-benzamide] came in with a melting point of 78.5 °C. Also, the Kb at human EAAT3 is 360 nM.
`Cn1cncc1-c1cc(C(=O)NC(C)(C)C)cc(-c2ccc(Cl)cc2)c1` [Example 4, N-tert-Butyl-3-(4-chlorophenyl)-5-(3-methyl-imidazol-4-yl)-benzamide] gave a melting point of 79.5 °C. The Kb at human EAAT3 came to 290 nM.
Compound `CC(C)(C)NC(=O)c1cc(-c2ccc(C(F)(F)F)cc2)cc(-c2cncn2C(C)(C)C)c1` [Example 12, N-tert-Butyl-3-(3-tert-butyl-imidazol-4-yl)-5-[4-(trifluoromethyl)-phenyl]-benzamide] registered a melting point of 87 °C. Moreover, the Kb on human EAAT3 stood at 270 nM.
`CC(C)n1cncc1-c1cc(C(=O)NC(C)(C)C)cc(-c2ccc(C(F)(F)F)cc2)c1` [Example 2, N-tert-Butyl-3-(3-propan-2-yl-imidazol-4-yl)-5-[4-(trifluoromethyl)-phenyl]-benzamide] gave a melting point of 88 °C. The compound also gave a Kb on human EAAT3 of 270 nM.
The matching figures for `CC(C)(C)NC(=O)c1cc(-c2ccc(Cl)cc2)cc(-c2cncn2C(C)(C)C)c1` [Example 7, N-tert-Butyl-3-(3-tert-butyl-imidazol-4-yl)-5-(4-chlorophenyl)-benzamide]: 92 °C and 200 nM.
Take `CCn1cncc1-c1cc(C(=O)NC(C)(C)C)cc(-c2ccc(Cl)cc2)c1` [Example 8, N-tert-Butyl-3-(4-chlorophenyl)-5-(3-ethyl-imidazol-4-yl)-benzamide]: the melting point was 89 °C. Also, the Kb at human EAAT3 was 190 nM.
The matching figures for `CCn1cncc1-c1cc(C(=O)NC(C)(C)C)cc(-c2ccc(C(F)(F)F)cc2)c1` [Example 10, N-tert-Butyl-3-(3-ethyl-imidazol-4-yl)-5-[4-(trifluoromethyl)-phenyl]-benzamide]: 87 °C and 230 nM.
The matching figures for `Cn1cncc1-c1cc(C(=O)NC(C)(C)C)cc(-c2ccc(F)cc2)c1` [Example 6, N-tert-Butyl-3-(4-fluorophenyl)-5-(3-methyl-imidazol-4-yl)-benzamide]: 62 °C and 270 nM.

As usually defined, the Kb is the equilibrium dissociation constant of an antagonist, usually derived from a functional assay. Read a high Kb as a less potent antagonist. For orientation: melting point means the temperature of the solid-liquid transition.
